In patent US11623931B2, “Bicyclic compounds for diagnosis and therapy” (AC IMMUNE SA, priority 2016, dated 2023):

Tests used:
[1] = test system: Aβ plaques on AD sections; assay: Assay 1 (fluorescence based assay): direct staining of human Alzheimer's disease brain sections; assay type: binding; set-up: key: − (No); +/− (very weak); + (weak); ++ (good); +++ (strong); settings: staining intensity; compound 100 μM, frozen amygdala sections, AD Braak stage V-VI
Experimental: Direct Staining of Compounds of this Invention to Human Alzheimer's Disease Brain Sections 20 μm frozen sections from amygdala were purchased from an external provider (Tissue Solutions Ltd.). Donors were diagnosed with AD, Braak stage V-VI (Braak et al., Neurobiol. Aging, 1995, 16, 271-284) and thus with confirmed Aβ pathology. Sections were kept at −80° C. until start of the experiment. Brain sections were encircled with pap pen liquid blocker to reduce the volume of solution for the different incubations. Sections were fixed for 15 min at 4° C. with 4% paraformaldehyde and washed three times for 5 minutes with PBS at room temperature. Test compounds were incubated on the sections at 100 μM in 50% ethanol in water for 30 min at room temperature, followed by three washes of 5 minutes with PBS. Sections were then saturated and permeabilized in blocking buffer (PBS, 10% NGS, 0.25% Triton) for 1 hour at room temperature and then incubated for 2 hours at room temperature with the primary antibodies against AR, 4G8, (Covance, SIG-39220), diluted 1/250 in PBS, 5% NGS, and 0.25% Triton. After three washes in PBS, the sections were incubated for 30 minutes at room temperature with a secondary anti-mouse antibody labeled with AlexaFluor555 (Invitrogen A21422) and further washed three times in PBS. To reduce auto-fluorescence of the tissue, the sections were incubated in a solution of 0.1% Sudan Black (Sigma 199664) in 70% ethanol for 15 min at room temperature, followed by four washes with PBS and mounted under cover slips using ProLong Gold Antifade reagent (Invitrogen P36930). Sections were analyzed on the Nikon Eclipse Ti microscope to detect staining and imaged using Nikon DS-Fi2 camera and NIS-Element AR4.13.1 software.

[2] = biological target: T1, aSyn aggregates on PD sections (Homo sapiens, UniProt P37840); assay: Assay 1 (fluorescence based assay): direct staining of human Parkinson's disease brain sections; assay type: binding; set-up: key: − (No); +/− (very weak); + (weak); ++ (good); +++ (strong); settings: staining intensity; compound 100 μM, frozen amygdala sections, PD Braak stage V-VI
T1 construct: 20 μm frozen sections from amygdala were purchased from an external provider (Tissue Solutions Ltd.); tissue Tissue Solutions Ltd; host or cells: human PD amygdala, frozen sections, Braak stage V-VI
From the text: Assay 1 (Fluorescence Based Assay):
Direct Staining of Compounds of this Invention to Human Parkinson's Disease Brain Sections
20 μm frozen sections from amygdala were purchased from an external provider (Tissue Solutions Ltd.). Donors were diagnosed with PD, Braak stage V-VI (Braak et al., Neurobiol. Aging, 2003, 24, 197-211) and thus with confirmed aSyn pathology. PD donors, Braak stage V-VI with mixed pathology, containing aSyn aggregates as well as Aβ plaques, were also used in this assay. Sections were kept at −80° C. until start of the experiment.
Brain sections were encircled with pap pen liquid blocker to reduce the volume of solution for the different incubations. Sections were fixed for 15 min at 4° C. with 4% paraformaldehyde and washed three times for 5 minutes with PBS (phosphate buffered saline) at room temperature. Test compounds were incubated on the sections at 100 μM in 50% ethanol in water for 30 min at room temperature, followed by three washes of 5 minutes with PBS. Sections were then saturated and permeabilized in blocking buffer (PBS, 10% NGS, 0.25% Triton) for 1 hour at room temperature and then incubated for 2 hours at room temperature with the primary antibodies against aSyn: aSyn-211 (SantaCruz Biotechnology sc-12767) or aSyn-pS129 (Abcam AB51253), and primary antibody against AR, 4G8, (Covance, SIG-39220). All primary antibodies diluted 1/250 in PBS, 5% NGS, 0.25% Triton. After three washes in PBS, the sections were incubated for 30 minutes at room temperature with a secondary anti-mouse antibody labeled with AlexaFluor555 (Invitrogen A21422) or anti-rabbit antibody labeled with AlexaFluor555 (Invitrogen A21428) and further washed three times in PBS. To reduce auto-fluorescence of the tissue, the sections were incubated in a solution of 0.1% Sudan Black (Sigma 199664) in 70% ethanol for 15 min at room temperature, followed by four washes with PBS and mounted under cover slips using ProLong Gold Antifade reagent (Invitrogen P36930).
Sections were analyzed on the Nikon Eclipse Ti microscope to detect staining and imaged using Nikon DS-Fi2 camera and NIS-Element AR4.13.1 software.

Structure (SMILES)	Staining of Aβ plaques on AD sections [1]	Staining of aSyn aggregates on PD sections [2]
CNc1ccc(-c2ccc3cc(-c4cccc(OC)c4O)sc3n2)cn1 [Example 3]	++	++
CNc1ccc(-c2ccc3cc(-c4ccc(C#N)cn4)sc3n2)cn1 [Example 5]	+	+
CNc1ccc(-c2ccc3cc(-c4ccccc4OC)sc3n2)cn1 [Example 7]	+++	++
CNc1ccc(-c2ccc3cc(-c4ccc(F)nc4)sc3n2)cn1 [Example 8]	+++	++
CNc1ccc(-c2ccc3cc(-c4cccc(OC)c4)sc3n2)cc1 [Example 9]	++	++
CNc1ccc(-c2cc3ccc(-c4ccc(OCCF)cc4)nc3s2)cc1 [Example 10]	+++	+
CNc1ccc(-c2ccc3cc(-c4ccc(OCCF)cc4)sc3n2)cc1 [Example 11]	++	+
FCCOc1ccc(-c2cc3ccc(-c4ccc(F)nc4)nc3s2)cc1 [Example 12]	++	+
COc1ccc(/C=C/c2ccc3cc(-c4ccc(OCCF)cc4)sc3n2)cc1 [Example 13]	+++	++
CNc1ccc(-c2ccc3cc(-c4cccnc4)sc3n2)cc1 [Example 14]	+++	++
COc1ccc(/C=C/c2ccc3cc(-c4cccnc4)sc3n2)cc1 [Example 15]	+++	+++
COc1cccc(/C=C/c2ccc3cc(-c4cccnc4)sc3n2)c1 [Example 16]	++	++
c1cncc(-c2cc3ncc(-c4ccc(N5CCCC5)nc4)cc3s2)c1 [Example 18]	+++	+++
c1cncc(-c2ccc3nc(-c4ccc(N5CCCC5)nc4)sc3c2)c1 [Example 19]	+++	+++
Cn1cc(-c2ccc3sc(-c4ccc(N5CCCC5)nc4)nc3c2)cn1 [Example 20]	−	+
c1ccc(-c2cc3ccc(-c4ccc(N5CCCC5)nc4)nc3s2)nc1 [Example 21]	++	++
c1cncc(-c2cnc3sc(-c4ccc(N5CCCC5)nc4)nc3c2)c1 [Example 23]	+	++
c1cncc(-c2cc3nc(-c4ccc(N5CCCC5)nc4)sc3cn2)c1 [Example 24]	+	++
c1n[nH]cc1-c1cc2nc(-c3ccc(N4CCCC4)nc3)sc2cn1 [Example 25]	+	++
Fc1cncc(-c2ccc3sc(-c4ccc(N5CCCC5)nc4)cc3n2)c1 [Example 28]	+	+
CN(C)c1ncc(-c2ccc3cc(-c4cccnc4)sc3n2)cn1 [Example 29]	++	+
CNc1ccc(-c2ccc3cc(-c4ccc(OC)c(O)c4)sc3n2)cc1 [Example 30]	++	++

Structure (SMILES)	Staining of Aβ plaques on AD sections [1]	Staining of aSyn aggregates on PD sections [2]
CNc1ccc(-c2ccc3cc(-c4ccnc(OC)c4)sc3n2)cc1 [Example 31]	++	+
c1cncc(-c2cc3ccc(-c4ccc(N5CCCC5)nc4)nc3s2)c1 [Example 32]	+++	+++
c1cncc(-c2cc3ccc(-c4ccc(N5CCOCC5)cc4)nc3s2)c1 [Example 33]	+	+++
Fc1ncccc1-c1cc2ccc(-c3ccc(N4CCCC4)nc3)nc2s1 [Example 34]	+++	++
c1ncc(-c2cc3ccc(-c4ccc(N5CCCC5)nc4)nc3s2)cn1 [Example 35]	++	++
CN(C)c1ccc(-c2cc3ccc(-c4ccc(F)nc4)nc3s2)cn1 [Example 36]	+++	+++
CN(C)c1ccc(-c2ccc3cc(-c4ccc(N(C)C)nc4)sc3n2)cn1 [Example 37]	+	++
c1cncc(-c2ccc3nc(-c4ccc(N5CCCC5)nc4)sc3n2)c1 [Example 38]	+++	+++
c1cncc(-c2ccc3sc(-c4ccc(N5CCCC5)nc4)nc3c2)c1 [Example 39]	+	+
Fc1ccncc1-c1ccc2sc(-c3ccc(N4CCCC4)nc3)nc2c1 [Example 40]	+	+++
Cn1cc(-c2ccc3sc(-c4ccc(N5CCCC5)nc4F)nc3c2)cn1 [Example 42]	+	+
F[C@@H]1CCN(c2ccc(-c3ccc4sc(-c5cccnc5)cc4n3)cn2)C1 [Example 44]	−	+
F[C@@H]1CCN(c2ccc(-c3ccc4cc(-c5cccnc5)sc4n3)cn2)C1 [Example 45]	++	+
F[C@@H]1CCN(c2ccc(-c3cc4nc(-c5cccnc5)ccc4s3)cn2)C1 [Example 46]	+	+
CNc1ccc(-c2ccc3cc(-c4cccnc4)sc3n2)cn1 [Example 47]	+++	+++
FC1CCN(c2ccc(-c3ccc4cc(-c5cccnc5)sc4n3)cn2)CC1 [Example 48]	+	++
OCCOC1CCN(c2ccc3cc(-c4cccnc4)sc3n2)CC1 [Example 49]	++	++
CN(C)c1ccc(-c2cc3ccc(-c4ccc(N5CCC(F)CC5)nc4)nc3s2)cn1 [Example 50]	+	++
Cn1cc(-c2ccc3sc(-c4ccc(N5CC[C@@H](F)C5)nc4)cc3n2)cn1 [Example 51]	+	++
Cn1cc(-c2ccc3sc(-c4ccc(N5CC[C@@H](F)C5)nc4)nc3c2)cn1 [Example 52]	−	+
Cn1cc(-c2ccc3sc(-c4ccc(N5CC[C@H](F)C5)nc4)nc3c2)cn1 [Example 53]	+	+
